Biological target: T1, PI3Kα H1047R (T47D cells) (Homo sapiens, UniProt P42336, H1047R)
T1 construct: endogenous in cells; host or cells: T47D cells
Assay: PI3Kα cellular assay: pAKT HTRF in T47D cells after EGF stimulation
Assay type: cell-based
Conditions: for IC50: T47D cells (PI3Kα H1047R), pAKT S473 HTRF, EGF stimulation; for T47D pAKT S473 HTRF IC50 (H1047R): T47D (H1047R) selectivity over SKBR3 (WT): selectivity of T47D (H1047R) over SKBR3 (WT) pAKT IC50
Outline: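 pAKT read by HTRF in lysates of EGF-stimulated (20 ng/mL, 10 min) T47D H1047R cells. Before stimulation, serum-starved cells (16 h) received compound for 1 h at 37 °C, dosed from 10,000 nM down to 0.5 nM in 3-fold steps.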

T1 sequence (P42336 whole entry H1047R): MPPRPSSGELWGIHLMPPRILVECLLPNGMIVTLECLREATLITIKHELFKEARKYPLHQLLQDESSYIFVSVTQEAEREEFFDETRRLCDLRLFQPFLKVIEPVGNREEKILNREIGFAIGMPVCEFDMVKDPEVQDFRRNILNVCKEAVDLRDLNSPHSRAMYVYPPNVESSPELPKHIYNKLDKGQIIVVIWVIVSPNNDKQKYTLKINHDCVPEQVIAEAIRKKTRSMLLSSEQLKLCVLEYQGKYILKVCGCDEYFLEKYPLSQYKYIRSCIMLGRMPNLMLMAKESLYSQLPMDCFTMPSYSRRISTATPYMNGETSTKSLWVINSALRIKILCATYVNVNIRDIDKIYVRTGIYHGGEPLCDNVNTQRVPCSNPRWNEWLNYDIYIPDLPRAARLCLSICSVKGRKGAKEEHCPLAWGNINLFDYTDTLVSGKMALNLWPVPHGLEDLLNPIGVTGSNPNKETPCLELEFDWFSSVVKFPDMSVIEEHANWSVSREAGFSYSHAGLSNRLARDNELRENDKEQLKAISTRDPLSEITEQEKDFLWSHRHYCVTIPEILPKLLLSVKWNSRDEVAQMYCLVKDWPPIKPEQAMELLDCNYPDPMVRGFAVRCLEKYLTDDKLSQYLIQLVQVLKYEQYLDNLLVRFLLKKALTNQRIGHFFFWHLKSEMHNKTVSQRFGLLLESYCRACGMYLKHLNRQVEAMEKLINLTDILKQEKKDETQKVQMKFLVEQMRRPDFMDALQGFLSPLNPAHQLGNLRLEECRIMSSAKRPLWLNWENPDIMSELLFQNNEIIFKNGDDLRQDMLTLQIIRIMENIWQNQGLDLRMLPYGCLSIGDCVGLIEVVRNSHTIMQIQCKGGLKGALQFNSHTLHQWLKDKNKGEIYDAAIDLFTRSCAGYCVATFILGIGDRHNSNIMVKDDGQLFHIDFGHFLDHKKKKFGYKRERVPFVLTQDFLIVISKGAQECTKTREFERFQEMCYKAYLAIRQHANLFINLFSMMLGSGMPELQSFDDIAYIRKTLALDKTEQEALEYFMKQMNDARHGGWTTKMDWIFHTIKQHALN
T1 sequence (P27986 whole entry partner): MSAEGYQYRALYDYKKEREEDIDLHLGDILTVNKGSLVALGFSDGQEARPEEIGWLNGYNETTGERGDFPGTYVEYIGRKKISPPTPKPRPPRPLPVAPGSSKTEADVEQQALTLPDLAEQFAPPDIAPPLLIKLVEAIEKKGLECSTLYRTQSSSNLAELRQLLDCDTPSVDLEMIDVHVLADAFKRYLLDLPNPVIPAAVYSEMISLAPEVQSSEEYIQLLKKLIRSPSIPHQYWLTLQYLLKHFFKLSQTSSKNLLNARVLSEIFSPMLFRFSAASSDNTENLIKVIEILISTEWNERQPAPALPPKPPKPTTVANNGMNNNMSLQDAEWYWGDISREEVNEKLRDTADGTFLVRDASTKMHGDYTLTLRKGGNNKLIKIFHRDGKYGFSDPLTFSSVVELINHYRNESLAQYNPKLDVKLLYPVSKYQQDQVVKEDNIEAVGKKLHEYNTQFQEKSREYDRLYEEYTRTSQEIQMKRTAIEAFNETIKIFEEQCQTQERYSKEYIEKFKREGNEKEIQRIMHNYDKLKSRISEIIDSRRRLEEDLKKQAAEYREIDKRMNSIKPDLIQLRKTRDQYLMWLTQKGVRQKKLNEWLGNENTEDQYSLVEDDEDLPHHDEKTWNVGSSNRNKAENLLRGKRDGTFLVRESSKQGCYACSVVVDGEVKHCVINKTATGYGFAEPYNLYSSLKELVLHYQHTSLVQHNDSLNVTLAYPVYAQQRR

Row | SMILES | IC50 | T47D pAKT S473 HTRF IC50 (H1047R): T47D (H1047R) selectivity over SKBR3 (WT)
1 | Cc1cc([C@@H](C)Nc2ccccc2C(=O)O)c2nc(-c3ccc4[nH]nc(C)c4c3)cc(=O)n2c1 [Compound 841] | – | C (C denotes ≤5-fold)
2 | Cc1cc(C(C)Nc2ccccc2C(=O)O)c2nc(N3C[C@H]4C[C@@H](C5CCN(S(C)(=O)=O)CC5)C[C@H]4C3)cc(=O)n2c1 (stereo partly shown) [Compound 843] | – | B (B denotes 20-fold≥value>5-fold)
3 | Cc1cc([C@@H](C)Nc2ccccc2-c2ccnnc2)c2nc(N3Cc4ccccc4C3)c(C3CC3)c(=O)n2c1 [Compound 847] | > 2000 nM | C (C denotes ≤5-fold)
4 | Cc1cc([C@H](C)Nc2ccccc2C(=O)O)c2nc(N3CC4CC(F)(F)CC4C3)c(C)c(=O)n2c1 (stereo partly shown) [Compound 850] | > 2000 nM | C (C denotes ≤5-fold)
5 | Cc1cc([C@H](C)Nc2ccccc2C(=O)O)c2nc(-c3ccc4c(c3)COC4)cc(=O)n2c1 [Compound 852] | – | C (C denotes ≤5-fold)
6 | Cc1cc([C@H](C)Nc2ccccc2C(=O)O)c2nc(-c3ccc4c(c3)CC(F)(F)C4)cc(=O)n2c1 [Compound 854] | > 2000 nM | –
7 | COc1cccc(NC(C)c2cc(C)cn3c(=O)cc(N4Cc5ccccc5C4)nc23)c1CO (stereo not shown) [Compound 865] | > 2000 nM | C (C denotes ≤5-fold)
8 | C=CC(=O)Nc1ccc(C(=O)O)c(N[C@H](C)c2cc(C)cn3c(=O)cc(N4CCOCC4)nc23)c1 [Compound 872] | > 2000 nM | C (C denotes ≤5-fold)
9 | C=CC(=O)Nc1ccc(C(=O)O)c(N[C@@H](C)c2cc(C)cn3c(=O)cc(N4CCOCC4)nc23)c1 [Compound 873] | > 2000 nM | C (C denotes ≤5-fold)
10 | Cc1cc([C@@H](C)Nc2ccccc2-c2ccnnc2)c2nc(N3Cc4ccccc4C3)c(C3CC3)c(=O)n2c1 [Compound 874] | > 2000 nM | –
11 | Cc1cc([C@@H](C)NCc2cccnn2)c2nc(N3Cc4ccccc4C3)cc(=O)n2c1 [Compound 876] | > 2000 nM | C (C denotes ≤5-fold)
12 | CC(Nc1ccccc1C(=O)O)c1cc(C(F)(F)F)cn2c(=O)cc(N3C[C@@H](C)O[C@@H](C)C3)nc12 (stereo partly shown) [Compound 898] | – | A (A denotes >20-fold)
13 | Cc1cc(C(C)Nc2ccccc2C(=O)O)c2nc(C3C[C@@H](C)O[C@@H](C)C3)c(C)c(=O)n2c1 (stereo partly shown) [Compound 901] | – | A (A denotes >20-fold)
14 | Cc1cc([C@@H](C)N[C@@H]2CCCC[C@@H]2C(=O)O)c2nc(N3CCOCC3)cc(=O)n2c1 [Compound 905] | > 2000 nM | C (C denotes ≤5-fold)
15 | Cc1cc([C@H](C)N[C@@H]2CCCC[C@@H]2C(=O)O)c2nc(N3CCOCC3)cc(=O)n2c1 [Compound 906] | > 2000 nM | C (C denotes ≤5-fold)
16 | Cc1c(N2C[C@@H](C)O[C@@H](C)C2)nc2c([C@@H](C)Nc3ccccc3C(=O)O)cc(C(F)(F)F)cn2c1=O [Compound 907] | – | C (C denotes ≤5-fold)
17 | Cc1cc([C@H](C)Nc2ccccc2-c2ccnnc2)c2nc(N3Cc4ccccc4C3)c(C)c(=O)n2c1 [Compound 909] | > 2000 nM | C (C denotes ≤5-fold)
18 | Cc1cc([C@H](C)Nc2ccccc2C(=O)O)c2ncc(Cc3ccc(F)cc3)c(=O)n2c1 [Compound 914] | > 2000 nM | C (C denotes ≤5-fold)
19 | Cc1cc([C@H](C)Nc2ccccc2C(=O)O)c2nc(N3CC4(CCNCC4)C3)c(C)c(=O)n2c1 [Compound 917] | – | C (C denotes ≤5-fold)
20 | Cc1cc(C(C)Nc2cccc3oc(=O)[nH]c23)c2nc(N3CCOCC3)cc(=O)n2c1 (stereo not shown) [Compound 918] | > 2000 nM | C (C denotes ≤5-fold)
21 | Cc1cc([C@H](C)Nc2ccccc2C(=O)O)c2nc(-c3ccc4c(c3)c(N(C)C)nn4C)c(C)c(=O)n2c1 [Compound 920] | > 2000 nM | C (C denotes ≤5-fold)
22 | CC(Nc1ccccc1C(=O)O)c1cc(C(F)(F)F)cn2c(=O)cc(N3Cc4ccccc4C3)nc12 (stereo not shown) [Compound 921] | > 2000 nM | C (C denotes ≤5-fold)
23 | Cc1cc([C@@H](C)Nc2ccccc2C(=O)O)c2nc(-c3ccc4c(C)n[nH]c4c3)cc(=O)n2c1 [Compound 923] | – | B (B denotes 20-fold≥value>5-fold)
24 | Cc1cc(C(C)Nc2ccccc2C(=O)C(F)(F)F)c2nc(N3Cc4ccccc4C3)c(C)c(=O)n2c1 (stereo not shown) [Compound 926] | > 2000 nM | C (C denotes ≤5-fold)

The next lines start with the values.

Row | IC50 | T47D pAKT S473 HTRF IC50 (H1047R): T47D (H1047R) selectivity over SKBR3 (WT) | SMILES
25 | > 2000 nM | C (C denotes ≤5-fold) | Cc1cc(C(C)NC2CCN(S(=O)(=O)N(C)C)C2)c2nc(N3Cc4ccccc4C3)cc(=O)n2c1 (stereo not shown) [Compound 834]
26 | 100 to 500 nM | A (A denotes >20-fold) | CNS(=O)(=O)c1ccccc1NC(C)c1cc(C)cn2c(=O)cc(N3Cc4ccccc4C3)nc12 (stereo not shown) [Compound 835]
27 | > 2000 nM | C (C denotes ≤5-fold) | Cc1cc(C(C)N(C)c2ccccc2S(N)(=O)=O)c2nc(N3Cc4ccccc4C3)cc(=O)n2c1 (stereo not shown) [Compound 836]
28 | > 2000 nM | C (C denotes ≤5-fold) | C=CC(=O)Nc1ccc(C(=O)O)c(NC(C)c2cc(C)cn3c(=O)cc(N4Cc5ccccc5C4)nc23)c1 (stereo not shown) [Compound 840]
29 | 500 to 2000 nM | B (B denotes 20-fold≥value>5-fold) | Cc1cc(C(C)Nc2ccccc2C(=O)O)c2nc(N3C[C@H]4C[C@@H](C5CCN(S(=O)(=O)N(C)C)CC5)C[C@H]4C3)cc(=O)n2c1 (stereo partly shown) [Compound 844]
30 | 100 to 500 nM | A (A denotes >20-fold) | Cc1cc([C@@H](C)Nc2ccccc2C(=O)O)c2nc(N3CC4CC(F)(F)CC4C3)c(C)c(=O)n2c1 (stereo partly shown) [Compound 849]
31 | < 100 nM | A (A denotes >20-fold) | Cc1cc([C@@H](C)Nc2ccccc2C(=O)O)c2nc(-c3ccc4c(c3)COC4)cc(=O)n2c1 [Compound 851]
32 | < 100 nM | A (A denotes >20-fold) | Cc1cc([C@@H](C)Nc2ccccc2C(=O)O)c2nc(-c3ccc4c(c3)CC(F)(F)C4)c(C)c(=O)n2c1 [Compound 853]
33 | 100 to 500 nM | A (A denotes >20-fold) | Cc1cc(C(C)Nc2ccccc2C(=O)O)c2nc(-c3ccc4c(n3)c(C)nn4C)cc(=O)n2c1 (stereo not shown) [Compound 858]
34 | 100 to 500 nM | A (A denotes >20-fold) | Cc1cc(C(C)Nc2ccccc2C(=O)O)c2nc(-c3ccc4c(n3)c(C)nn4C)c(C)c(=O)n2c1 (stereo not shown) [Compound 859]
35 | 500 to 2000 nM | B (B denotes 20-fold≥value>5-fold) | Cc1cc([C@@H](C)Nc2ccccc2C(=O)O)c2nc(N3C[C@H](C)C[C@H](C(F)F)C3)cc(=O)n2c1 [Compound 868]
36 | 100 to 500 nM | A (A denotes >20-fold) | Cc1cc(C(C)Nc2ccccc2C(=O)O)c2nc(-c3ccc4c(c3)c(N)nn4C3CC3)cc(=O)n2c1 (stereo not shown) [Compound 870]
37 | < 100 nM | A (A denotes >20-fold) | Cc1cc([C@H](C)Nc2ccccc2-c2ccnnc2)c2nc(N3Cc4ccccc4C3)c(C3CC3)c(=O)n2c1 [Compound 875]
38 | 100 to 500 nM | A (A denotes >20-fold) | Cc1cc(C(C)Nc2ccccc2-c2nnn[nH]2)c2nc(N3Cc4ccccc4C3)cc(=O)n2c1 (stereo not shown) [Compound 877]
39 | < 100 nM | A (A denotes >20-fold) | Cc1cc(C(C)Nc2ccccc2C(=O)O)c2nc(-c3ccc4c(c3)c(C)nn4C3CC3)cc(=O)n2c1 (stereo not shown) [Compound 890]
40 | 500 to 2000 nM | B (B denotes 20-fold≥value>5-fold) | Cc1cc([C@H](C)Nc2ccccc2C(=O)O)c2nc(-c3ccc4c(c3)c(C)cn4C)c(C)c(=O)n2c1 [Compound 903]
41 | 100 to 500 nM | A (A denotes >20-fold) | Cc1cc(C(C)Nc2ccccc2C(=O)O)c2nc(N3CC4(CCOCC4)C3)c(C)c(=O)n2c1 (stereo not shown) [Compound 904]
42 | 100 to 500 nM | A (A denotes >20-fold) | Cc1cc(C(C)Nc2ccccc2C(=O)O)c2nc(N3C[C@@H](C)O[C@@H](C)C3)c(C)c(=O)n2c1 (stereo partly shown) [Compound 915]
43 | < 100 nM | A (A denotes >20-fold) | CC(Nc1ccccc1C(=O)O)c1cc(C(F)(F)F)cn2c(=O)cc(N3Cc4ccccc4C3)nc12 (stereo not shown) [Compound 922]
44 | 100 to 500 nM | A (A denotes >20-fold) | Cc1cc([C@@H](C)Nc2ccccc2C(=O)O)c2nc(C3C[C@@H](C)O[C@@H](C)C3)cc(=O)n2c1 (stereo partly shown) [Compound 924]
45 | 500 to 2000 nM | B (B denotes 20-fold≥value>5-fold) | Cc1cc([C@H](C)Nc2ccccc2C(=O)O)c2nc(C3C[C@@H](C)O[C@@H](C)C3)cc(=O)n2c1 (stereo partly shown) [Compound 925]
46 | < 100 nM | A (A denotes >20-fold) | Cc1cc([C@@H](C)Nc2ccccc2C(=O)O)c2nc(-c3ccc4c(C)nn(C)c4c3)c(C)c(=O)n2c1 [Compound 927]
